Results taken from patent US11033600B2, “Protease transition state inhibitor prodrugs” (priority 2016, dated 2021).
Read-outs that look alike come from different tables or passages of the source.

Assays:
[1] = biological target: norovirus 3CL protease (NV 3CLpro) (Norovirus, UniProt Q83883); assay: FRET protease assay (3CL protease), enzyme inhibition; assay type: biochemical
Procedure: FRET protease assays. The FRET protease assay (3CL protease) was performed by preparing stock solutions of the substrate (Edans-DFHLQ/GP-Dabcyl, SEQ ID NO:1) and inhibitor in DMSO and diluting into assay buffer which was comprised of 20 mM HEPES buffer, pH 8, containing NaCl (200 mM), 0.4 mM EDTA, glycerol (60%), and 6 mM dithiothreitol (DTT). The protease was mixed with serial dilutions of each compound up to 100 μM or with DMSO in 25 μL of assay buffer and incubated at 37° C. for 30 min, followed by the addition of 25 μL of assay buffer containing substrate. Fluorescence readings were obtained using an excitation wavelength of 360 nm and an emission wavelength of 460 nm on a fluorescence microplate reader (FLx800; Biotec, Winoosk, Vt.) 1 h following the addition of substrate. Relative fluorescence units (RFU) were determined by subtracting background values (substrate-containing well without protease) from the raw fluorescence values. The dose-dependent FRET inhibition curves were fitted with a variable slope by using GraphPad Prism software (GraphPad, La Jolla, Calif.) in order to determine the IC50 values of the inhibitors.

[2] = system: NV in replicon harboring cells (HG23 cells); assay: Cell-based assay: virus replication in NV replicon harboring cells (HG23 cells), qRT-PCR; design: species or system norovirus (NV)
Procedure: The effects of each inhibitor on virus replication were examined against NV in the NV replicon harboring cells (HG23 cells). Briefly, confluent and semi-confluent HG23 cells were incubated with medium containing DMSO (<0.1%) or each compound (up to 200 uM) for 48 h. After the incubation, total RNA was extracted and viral genome was quantitated with real-time quantitative RT-PCR (qRT-PCR). The EC50 values were determined by GraphPadPrism software.

[3] = IV, SC and PO routes, rats
[4] = Table 1, ester prodrugs, average of at least two determinations, read-out: IC50 (50% inhibitory concentration in the enzyme assay)
[5] = Table 1, ester prodrugs, HG23 cells, 48 h, read-out: EC50 (50% effective concentration in cell culture)
[6] = Table 2, carbamate prodrugs, read-out: IC50
[7] = Table 2, carbamate prodrugs, HG23 cells, 48 h, read-out: EC50
[8] = Norovirus, HG23, given in M, read-out: EC50

norovirus 3CL protease (NV 3CLpro), sequence (Q83883 1101-1281): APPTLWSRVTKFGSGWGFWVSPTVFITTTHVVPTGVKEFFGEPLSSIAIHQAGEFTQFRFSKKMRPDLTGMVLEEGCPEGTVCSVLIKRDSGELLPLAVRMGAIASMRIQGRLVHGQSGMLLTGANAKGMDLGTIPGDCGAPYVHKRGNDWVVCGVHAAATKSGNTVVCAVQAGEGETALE

Row | Structure (SMILES) | IC50 [1, 4] | EC50 [2, 5] | IC50 [1, 6] | EC50 [2, 7] | further results
1 | CCCCCCOC(=O)OC([C@H](CC1CCNC1=O)NC(=O)[C@H](CC1CCCCC1)NC(=O)OCc1cccc(Cl)c1)S(=O)(=O)O (stereo partly drawn) [Compound 17, (5 S, 8S)-1-(3-chlorophenyl)-5-(cyclohexylmethyl)-3,6,11-trioxo-8-((2-oxo-pyrrolidin-3-yl)methyl)-2,10,12-trioxa-4,7-diazaoctadecane-9-sulfonate] | 0.8 µM | 25 nM | – | – | –
2 | COC(=O)C(C)NC(=O)OC([C@H](C[C@@H]1CCNC1=O)NC(=O)[C@H](CC1CCCCC1)NC(=O)OCc1ccccc1)S(=O)(=O)O (stereo partly drawn) [Compound 23, (5 S,8S)-5-(Cyclohexylmethyl)-13-methyl-3,6,11,14-tetraoxo-8-(((S)-2-oxopyrrolidin-3-yl)methyl)-1-phenyl-2,10,15-trioxa-4,7,12-triazahexadecane-9-sulfonate] | – | – | 10.2 µM | 200 nM | –
3 | O=C(N[C@@H](CC1CCCCC1)C(=O)N[C@@H](C[C@@H]1CCNC1=O)C(OC(=O)C1CCCCC1)S(=O)(=O)O)OCc1cccc(Cl)c1 (stereo partly drawn) [Compound 14, (5 S,8S)-1-(3-Chlorophenyl)-11-cyclohexyl-5-(cyclohexylmethyl)-3,6,11-trioxo-8-(((S)-2-oxopyrrolidin-3-yl)methyl)-2,10-dioxa-4,7-diazaundecane-9-sulfonate] | 0.4 µM | 20 nM | – | – | –
4 | CCCCCC(=O)OC([C@H](C[C@@H]1CCNC1=O)NC(=O)[C@H](CC(C)C)NC(=O)OCc1ccccc1)S(=O)(=O)O (stereo partly drawn) [Compound 5, (5 S, 8S)-5-Isobutyl-3,6,11-trioxo-8-(((S)-2-oxopyrrolidin-3-yl)methyl)-1-phenyl-2,10-dioxa-4,7-diazahexadecane-9-sulfonate] | 2.8 µM | 300 nM | – | – | –
5 | O=C(N[C@@H](CC1CCCCC1)C(=O)N[C@@H](C[C@@H]1CCNC1=O)C(O)S(=O)(=O)O)OCc1cccc(Cl)c1 (stereo partly drawn) [Compound 26, reference compound] | – | – | – | – | IC50 ([1]; in μM, read-out: IC50): 0.1 µM; EC50 [2, 8]: 20 nM
6 | CCCCC(=O)OC([C@H](C[C@@H]1CCNC1=O)NC(=O)[C@H](CC(C)C)NC(=O)OCc1ccccc1)S(=O)(=O)O (stereo partly drawn) [Compound 4, (5S,8S)-5-Isobutyl-3,6,11-trioxo-8-(((S)-2-oxopyrrolidin-3-yl)methyl)-1-phenyl-2,10-dioxa-4,7-diazapentadecane-9-sulfonate] | 3.5 µM | 1400 nM | – | – | –
7 | COC(=O)C(C)NC(=O)OC([C@H](C[C@@H]1CCNC1=O)NC(=O)[C@H](CC1CCCCC1)NC(=O)OCc1cccc(Cl)c1)S(=O)(=O)O (stereo partly drawn) [Compound 21, (5 S, 8S)-1-(3-Chlorophenyl)-5-(cyclohexylmethyl)-13-methyl-3,6,11,14-tetraoxo-8-(((S)-2-oxopyrrolidin-3-yl)methyl)-2,10,15-trioxa-4,7,12-triazahexadecane-9-sulfonate] | – | – | 0.8 µM | 25 nM | –
8 | CCCC(=O)OC([C@H](C[C@@H]1CCNC1=O)NC(=O)[C@H](CC(C)C)NC(=O)OCc1ccccc1)S(=O)(=O)O (stereo partly drawn) [Compound 3, (5S,8S)-5-Isobutyl-3,6,11-trioxo-8-(((S)-2-oxopyrrolidin-3-yl)methyl)-1-phenyl-2,10-dioxa-4,7-diazatetradecane-9-sulfonate] | 3.7 µM | 1300 nM | – | – | –
9 | COC(=O)C(NC(=O)OC([C@H](C[C@@H]1CCNC1=O)NC(=O)[C@H](CC1CCCCC1)NC(=O)OCc1cccc(Cl)c1)S(=O)(=O)O)C(C)C (stereo partly drawn) [Compound 22, (5 S,8S)-1-(3-Chlorophenyl)-5-(cyclohexylmethyl)-13-isopropyl-3,6,11,14-tetraoxo-8-(((S)-2-oxopyrrolidin-3-yl)methyl)-2,10,15-trioxa-4,7,12-triazahexadecane-9-sulfonate] | – | – | 0.5 µM | 40 nM | –
10 | CC(=O)OC([C@H](C[C@@H]1CCNC1=O)NC(=O)[C@H](CC1CCCCC1)NC(=O)OCc1ccccc1)S(=O)(=O)O (stereo partly drawn) [Compound 15, (5S,8S)-5-(Cyclohexylmethyl)-3,6,11-trioxo-8-(((S)-2-oxopyrrolidin-3-yl)methyl)-1-phenyl-2,10-dioxa-4,7-diazadodecane-9-sulfonate] | 7.5 µM | 200 nM | – | – | –
11 | CC(C)C[C@H](NC(=O)OCc1ccccc1)C(=O)N[C@@H](C[C@@H]1CCNC1=O)C(O)S(=O)(=O)O (stereo partly drawn) [Compound 24, reference compound] | – | – | – | – | IC50 ([1]; in μM, read-out: IC50): 0.8 µM; EC50 [2, 8]: 300 nM
12 | COC(=O)C(C)NC(=O)OC([C@H](C[C@@H]1CCNC1=O)NC(=O)[C@H](CC(C)C)NC(=O)OCc1ccccc1)S(=O)(=O)O (stereo partly drawn) [Compound 19, (5 S,8S)-5-Isobutyl-13-methyl-3,6,11,14-tetraoxo-8-(((S)-2-oxopyrrolidin-3-yl)methyl)-1-phenyl-2,10,15-trioxa-4,7,12-triazahexadecane-9-sulfonate] | – | – | 1.8 µM | 300 nM | –
13 | CC(=O)OC([C@H](C[C@@H]1CCNC1=O)NC(=O)[C@H](CC1CCCCC1)NC(=O)OCc1cccc(Cl)c1)S(=O)(=O)O (stereo partly drawn) [Compound 9, (5 S, 8S)-1-(3-Chlorophenyl)-5-(cyclohexylmethyl)-3,6,11-trioxo-8-(((S)-2-oxopyrrolidin-3-yl)methyl)-2,10-dioxa-4,7-diazadodecane-9-sulfonate] | 0.08 µM | 30 nM | – | – | –
14 | O=C(N[C@@H](CC1CCCCC1)C(=O)N[C@@H](C[C@@H]1CCNC1=O)C(OC(=O)C1CCCCC1)S(=O)(=O)O)OCc1ccccc1 (stereo partly drawn) [Compound 16, (5S,8S)-11-Cyclohexyl-5-(cyclohexylmethyl)-3,6,11-trioxo-8-(((S)-2-oxopyrrolidin-3-yl)methyl)-1-phenyl-2,10-dioxa-4,7-diazaundecane-9-sulfonate] | 0.6 µM | 60 nM | – | – | –
15 | COC(=O)C(NC(=O)OC([C@H](C[C@@H]1CCNC1=O)NC(=O)[C@H](CC(C)C)NC(=O)OCc1ccccc1)S(=O)(=O)O)C(C)C (stereo partly drawn) [Compound 20, (5 S,8S)-5-Isobutyl-13-isopropyl-3,6,11,14-tetraoxo-8-(((S)-2-oxopyrrolidin-3-yl)methyl)-1-phenyl-2,10,15-trioxa-4,7,12-triazahexadecane-9-sulfonate] | – | – | 2.5 µM | 400 nM | –
16 | CCCCCC(=O)OC([C@H](C[C@@H]1CCNC1=O)NC(=O)[C@H](CC1CCCCC1)NC(=O)OCc1cccc(Cl)c1)S(=O)(=O)O (stereo partly drawn) [Compound 11, (5S,8S)-1-(3-Chlorophenyl)-5-(cyclohexylmethyl)-3,6,11-trioxo-8-(((S)-2-oxopyrrolidin-3-yl)methyl)-2,10-dioxa-4,7-diazahexadecane-9-sulfonate] | 0.1 µM | 15 nM | – | – | Conversion of prodrug to the aldehyde form (compound 25) in rat plasma [3]: most of compound 11 was converted to the aldehyde form
